In ChEMBL document CHEMBL6096692, “Discovery of 2(1H)-Quinoxalinone Derivatives as Potent and Selective MAT2A Inhibitors for the Treatment of MTAP-Deficient Cancers” (J Med Chem, 2025):
The source made the active and inactive calls. The rule behind the calls is not given here.

What was measured:
MIA PaCa-2 [1] = test: Antitumor activity against MTAP null human MIA PaCa-2 cells xenografted in mouse assessed as inhibition of SAM production in tumor at 30 to 60 mg/kg, po measured after 28 days; format: functional, organism-based; conditions: dose 30-60 mg/kg, time 28.0 day
[2] = Plasma protein binding in human assessed as unbound fraction; format: ADME, cell-free
[3] = Bioavailability in male ICR mouse at 1 mg/kg measured upto 36 hrs by LC-MS/MS analysis; format: ADME, organism-based; conditions: in vivo
MKN-45 = test: Antiproliferative activity against MTAP null human MKN-45 cells assessed as inhibition of cell viability measured for 96 hrs by SRB assay; format: functional, cell-based
SF-126 [4] = test: Induction of DNA damage in MTAP knockout human SF-126 cells assessed as increase in gammaH2AX level at 0.1 to 10 uM measured for 96 hrs by immunofluorescence analysis; format: functional, cell-based; conditions: dose 0.1-10 µM
Cytochrome P450 1A2 = target: T1, Cytochrome P450 1A2 (Homo sapiens, UniProt P05177); test: Inhibition of CYP1A2 in human liver microsomes using phenacetin as substrate incubated for 10 mins in presence of NADPH by LC-MS/MS analysis; format: ADME, Microsome
T1 sequence (P05177 whole entry): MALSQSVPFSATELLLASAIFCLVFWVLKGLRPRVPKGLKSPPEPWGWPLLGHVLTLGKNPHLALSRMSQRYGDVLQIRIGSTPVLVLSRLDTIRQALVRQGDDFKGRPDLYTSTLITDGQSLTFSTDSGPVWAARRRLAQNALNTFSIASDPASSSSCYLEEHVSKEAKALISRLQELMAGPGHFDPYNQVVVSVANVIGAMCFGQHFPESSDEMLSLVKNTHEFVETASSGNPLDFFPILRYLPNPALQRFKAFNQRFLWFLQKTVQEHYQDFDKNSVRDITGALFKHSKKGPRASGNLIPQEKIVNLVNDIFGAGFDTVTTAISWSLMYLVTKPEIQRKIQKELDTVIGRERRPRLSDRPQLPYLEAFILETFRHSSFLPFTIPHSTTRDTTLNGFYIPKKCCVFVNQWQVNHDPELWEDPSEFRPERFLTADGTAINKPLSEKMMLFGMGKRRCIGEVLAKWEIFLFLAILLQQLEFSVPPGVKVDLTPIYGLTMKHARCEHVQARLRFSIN

[5] = Drug concentration in mouse plasma at 30 mg/kg, po; format: ADME, organism-based; conditions: in vivo
[6] = target: S-adenosylmethionine synthase isoform type-2 (Homo sapiens, UniProt P31153); test: Inhibition of MAT2A (unknown origin) using L-methionine and ATP as substrate preincubated with compound for 10 mins followed by substrate addition and measured after 60 mins by kinase-glo max reagent based microplate reader analysis
Chain of S-adenosylmethionine synthase isoform type-2 (P31153 whole entry, canonical isoform): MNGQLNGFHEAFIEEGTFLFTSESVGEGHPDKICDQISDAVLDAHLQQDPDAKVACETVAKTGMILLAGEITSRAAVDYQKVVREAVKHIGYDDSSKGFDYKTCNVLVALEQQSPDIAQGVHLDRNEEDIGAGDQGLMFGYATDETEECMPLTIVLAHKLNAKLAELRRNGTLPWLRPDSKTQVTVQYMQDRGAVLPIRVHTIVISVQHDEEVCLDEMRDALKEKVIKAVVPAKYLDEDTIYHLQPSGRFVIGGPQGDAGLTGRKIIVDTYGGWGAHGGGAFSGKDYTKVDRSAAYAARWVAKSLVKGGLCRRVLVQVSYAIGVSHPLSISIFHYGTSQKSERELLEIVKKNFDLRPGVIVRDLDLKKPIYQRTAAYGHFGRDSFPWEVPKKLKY

B16-F10 [7] = test: Antitumor activity against MTAP-knockout mouse B16-F10 cells implanted in mouse assessed as reduction in tumor volume at 30 to 60 mg/kg, po administered for 10 days and measured after 12 days; format: functional, organism-based; conditions: dose 30-60 mg/kg, time 22.0 day
NCI-H838 = test: Antiproliferative activity against MTAP null human NCI-H838 cells assessed as inhibition of cell viability measured for 96 hrs by SRB assay; format: functional, cell-based
MIA PaCa-2 [8] = test: Antitumor activity against MTAP null human MIA PaCa-2 cells xenografted in mouse assessed as tumor growth inhibition at 60 mg/kg, po measured after 28 days; format: functional, organism-based; conditions: time 28.0 day
B16-F10 [9] = test: Antiproliferative activity against MTAP knockout mouse B16-F10 cells assessed as inhibition of cell viability measured for 96 hrs by SRB assay; format: functional, cell-based; conditions: B16-F10, 96 h
[10] = Half life in male ICR mouse at 1 mg/kg, iv measured upto 36 hrs by LC-MS/MS analysis; format: ADME, organism-based; conditions: in vivo
Daoy = test: Antiproliferative activity against MTAP null human Daoy cells assessed as inhibition of cell viability measured for 96 hrs by SRB assay; format: functional, cell-based
SF-126 [11] = test: Induction of DNA damage in human SF-126 cells harboring wild type MTAP assessed as increase in gammaH2AX level at 0.1 to 10 uM measured for 96 hrs by immunofluorescence analysis; format: functional, cell-based; conditions: dose 0.1-10 µM

fraction unbound [2]: 0.003
bioavailability [3]: 118%
IC50 (Cytochrome P450 1A2): > 30000 nM
Drug uptake [5]: Active
IC50 [6]: 49 nM
IC50 (B16-F10 [9]): 430 nM
half-life [10]: 8.43 h
Structure (SMILES): Cn1cnc2ccc(-c3nc4ccc(C5CC5)cc4n(-c4ccc(OC(F)F)cc4)c3=O)cc21
Activity (MIA PaCa-2 [1]): Active
Activity (MKN-45): Active
Activity (SF-126 [4]): Active
Activity (B16-F10 [7]): Active
Activity (NCI-H838): Active
TGI (MIA PaCa-2 [8]): Active
Activity (Daoy): Active
Activity (SF-126 [11]): Active
